As usually defined, the MIC is the lowest concentration that inhibits growth of the organism. Low readings indicate a more susceptible organism, high ones a less susceptible organism. As a reminder, the HC50 is the concentration giving 50% haemolysis. A word on the IC50: it is the midpoint of a concentration-inhibition curve. A higher IC50 goes with lower potency.

≈ marks a conversion by molar mass, not a printed value. Like-named read-outs stand apart in the source and are kept apart here.

What all share (assay type): cell-based
The test system of series [1] is E. coli ATCC 8739. The following applies: cation-adjusted MHB, 90 min incubation at 37°C, plated on LB agar 12–24 h, lowest concentration giving less than one CFU (≥99.9% reduction), mean ± SD, at least three biological repeats. On the procedure:
(§1) For the antimicrobial peptide assays, a 10 mL starter culture was produced by taking single colonies from LB agar plates to inoculate in Lysogeny/Luria Broth (1% w/v Oxoid Tryptone, 0.5% w/v NaCl, 0.5% w/v Oxoid Yeast Extract, pH 7.0, Thermo Scientific Pty, Ltd., Sydney, Australia) for bacteria; S. aureus ATCC 29213 and E. coli ATCC 8739 were grown aerobically at 37°C in an orbital shaker (Minitron, Infors HT) at 200 rpm. After overnight incubation, 0.5–1.0 mL of the starter culture was used to inoculate fresh LB broth (20 mL), and its growth was monitored at 600 nm using a spectrophotometer (model Varian Cary 50 Bio UV-Vis). Bacteria were harvested during the late exponential growth phase, and CFUs/mL were determined using the growth curve data set that correlated OD600 to CFUs/mL.
(§2) Antibacterial assays were undertaken to determine the minimum inhibitory concentration (MIC), the minimum bactericidal concentration (MBC), and the level of membrane disruption of each of the antimicrobial peptides (AMPs) and multimerized AMPs. […] After the 90-min incubation period, the antimicrobial activity (MIC and MBC) was determined as follows:
(§3) The CLSI protocol was followed to determine MBC. After incubation, bacteria were serially diluted (1:10) in PBS, plated on LB agar, and incubated for 12–24 h at 37°C; then, the CFUs were quantified. […]

For series [2], the system named is E. coli ATCC 8739. The following applies: cation-adjusted MHB, 1 × 10^5 cells/well, 90 min incubation with peptide at 37°C, then growth monitored 20 h at OD630, Lambert and Pearson analysis, mean ± SD, at least three biological repeats. The method, then:
as §1
Antibacterial assays were undertaken to determine the minimum inhibitory concentration (MIC), the minimum bactericidal concentration (MBC), and the level of membrane disruption of each of the antimicrobial peptides (AMPs) and multimerized AMPs. For each bacterium, a stock solution (2 × 10^6 cells/mL) in cation-adjusted Mueller Hinton Broth (MHB) was made, and an aliquot was incubated with AMPs within 15 min from viable cell count and stock preparation. […] After the 90-min incubation period, the antimicrobial activity (MIC and MBC) was determined as follows: […]

The subject of series [3] is S. aureus ATCC 29213. Briefly: microbe, parasite or virus in culture. Particulars: 90 min incubation at 37°C, plated on LB agar 12–24 h, lowest concentration giving less than one CFU (≥99.9% reduction), mean ± SD, at least three biological repeats. On the procedure: as §1, §2, §3
Series [4] relates to H4IIE cells. Briefly: Cytotoxicity (cell lysis), LDH release assay. The following applies: for TI (cell lysis): H4IIE, LD50/MBC50. The method, then:
(§4) To determine toxicity toward mammalian cells, 1 × 10^4 cells/well of HEK-293 (ATCC CRL-1573TM) or H4IIE in a total volume of […] in media (Eagle’s Minimum Essential Medium (EMEM) supplemented with 10% v/v fetal bovine serum, 5% v/v L-glutamine and 5% v/v penicillin/streptomycin) were seeded into 96-well plates and cultured at 37°C in a 5% CO2 incubator for 16–20 h. When cells were ≥90% confluent, the 100 µL media was removed and replaced with 50 μL serial dilutions of the AMP in media (final concentration 20–0.5 μM) and cultured at 37°C in a 5% CO2 incubator for 90 min. From each well, 50 µL was transferred to a new plate. To the 50 μL, 50 µL of lactate dehydrogenase (LDH) solution (CytoTox 96® Non-Radioactive Cytotoxicity Assay kit, Promega) was added to each well and incubated for a further 30 min at room temperature and protected from light. Cell death was determined by measuring absorbance at 490 nm using a microplate reader (PerkinElmer 1,420 Multilabel Counter VICTOR3). Positive and negative controls for inhibition were taken as cells incubated with lysis solution (CytoTox 96® Non-Radioactive Cytotoxicity Assay kit, Promega) and cells incubated in media alone, respectively. The background absorbance of media alone was subtracted from the sample absorbance, and the percentage of inhibition was calculated using the following formula: % Cytotoxicity=A490 test sample−A490 negative control/A490 positive control−A490 negative control×100.
(§5) The percentage of lysis was plotted against peptide concentration, and linear regression analysis was used to determine the AMP concentration needed to lyse 50% (LD50) of the cells.

For series [5], the system named is HEK-293 (ATCC CRL-1573) cells. Kind of series: Cytotoxicity (cell lysis), LDH release assay. Particulars: for TI (cell lysis): HEK293, LD50/MBC50. On the procedure: as §4, §5
Series [6] has as its system Chicken red blood cells (RBCs). Briefly: Hemolysis assay. The method, then: Chicken red blood cells (RBCs) in Alsever’s solution (RBCs, Equicell, Victoria, Australia) were diluted 1 in 20 in PBS (pH 7.4), pelleted by centrifugation, and washed three times in PBS (1,000 g, 10 min). The RBCs were counted using a cell counter (Coulter Particle Counter Z series, Beckman Coulter) and diluted to a final concentration of 2 × 10^7 cells/mL. Aliquots (100 μL) of the RBC solution were seeded into a V-bottomed 96-well plate containing 100 μL of serial dilutions (10–0.08 μM) of the AMP in PBS and incubated in a humidified atmosphere containing 5% CO2 at 37°C for 2 h. Following incubation, the RBCs were pelleted in a centrifuge (1,000 g, 10 min), and the amount of hemoglobin released in 100 μL aliquots of the supernatant was determined by measuring the absorbance at 405 nm using a microplate reader (PerkinElmer 1,420 Multilabel Counter VICTOR3). Positive and negative controls for hemolysis were taken as RBC lysed with 1% v/v Triton X-100 and RBC suspension in PBS, respectively. The percentage of hemolysis was calculated using the following formula: % Hemolysis A405 test sample−A405 negative control / A405 positive control−A405 negative controlx 100.
The percentage hemolysis was plotted against peptide concentration, and linear regression analysis was used to determine the hemolytic concentration needed to lyse 50% (HC50) of RBCs.

Series [7] relates to H4IIE cells. Kind of series: Inhibition of cell proliferation, MTS assay. The following applies: for TI (cell proliferation): H4IIE, IC50/MIC50. On the procedure:
(§6) To determine the inhibition of cell proliferation, 20 μL of 3-(4,5-dimethylthiazol-2-yl)-5-(3-carboxymethoxyphenyl)-2-(4-sulfophenyl)-2H-tetrazolium (MTS) solution (CellTiter 96 AQueous Non-Radioactive Cell Proliferation Assay kit, Promega) was added to the remaining 100 µL from the toxicity assay, and the plates were incubated for a further 1 h at 37°C in a 5% CO2 incubator protected from light. Cell proliferation was determined by measuring absorbance at 490 nm using a microplate reader (PerkinElmer 1,420 Multilabel Counter VICTOR3). Positive and negative controls for inhibition were taken as cells incubated with lysis solution (CytoTox 96® Non-Radioactive Cytotoxicity Assay kit, Promega) and cells incubated in media alone, respectively. The background absorbance of media alone was subtracted from the samples, and the percentage of inhibition was calculated using the following formula: % Inhibition=A490 test sample−A490 negative control/A490 positive control−A490 negative control×100.
(§7) The percentage of inhibition was plotted against peptide concentration, and linear regression analysis was used to determine the AMP concentration needed to inhibit 50% (IC50) of cell growth.
Background: Formazan colour is commonly taken as a measure of viable cells.

In series [8] the test system is HEK-293 (ATCC CRL-1573) cells. Briefly: Inhibition of cell proliferation, MTS assay. Particulars: for TI (cell proliferation): HEK293, IC50/MIC50. The method, then:
as §6, §7

The compound Gentamycin showed an MBC in series [1] of 3.3 ± 0.78 µM. In series [2], this compound displayed an MIC of 2.27 ± 0.33 µM.

As for `CC[C@H](C)[C@H](NC(=O)CN)C(=O)NCC(=O)N[C@@H](C)C(=O)N[C@H](C(=O)N[C@@H](CC(C)C)C(=O)N[C@@H](CCCCN)C(=O)N[C@H](C(=O)N[C@@H](CC(C)C)C(=O)N[C@H](C(=O)N[C@H](C(=O)NCC(=O)N[C@@H](CC(C)C)C(=O)N1CCC[C@H]1C(=O)N[C@@H](C)C(=O)N[C@@H](CC(C)C)C(=O)N[C@H](C(=O)N[C@@H](CO)C(=O)N[C@@H](Cc1c[nH]c2ccccc12)C(=O)N[C@H](C(=O)N[C@@H](CCCCN)C(=O)N[C@@H](CCCNC(=N)N)C(=O)N[C@@H](CCCCN)C(=O)N[C@@H](CCCNC(=N)N)C(=O)N[C@@H](CCC(N)=O)C(=O)N[C@@H](CCC(N)=O)C(N)=O)[C@@H](C)CC)[C@@H](C)CC)[C@@H](C)O)[C@@H](C)O)C(C)C)C(C)C` [1. Melittin, Melittin], the results for the MBC in series [3] (cation-adjusted MHB) and in series [1] were 1.76 ± 0.76 µM (≈ 5.01 µg/mL) and 8.67 ± 0.93 µM (≈ 24.7 µg/mL), respectively. The LD50 was 1.79 ± 0.95 µM in series [4] (H4IIE cells, LDH release, 90 min exposure at 37°C, 20–0.5 μM, concentration lysing 50% of cells by linear regression, mean ± SD, at least three biological repeats) and 0.75 ± 0.21 µM in series [5] (HEK293 cells, LDH release, 90 min exposure at 37°C, 20–0.5 μM, concentration lysing 50% of cells by linear regression, mean ± SD, at least three biological repeats). Further, the “TI (cell lysis)” value in series [4] (MBC50 toward S. aureus 29213) worked out at 2.05; in series [4] (MBC50 towards E. coli 8729) it was 0.41; in series [5] (MBC50 toward S. aureus 29213), 0.85; in series [5] (MBC50 towards E. coli 8729), 0.17. In series [2], the MIC amounted to 6.89 ± 0.72 µM (≈ 19.6 µg/mL). Also, in series [6] (chicken RBCs in PBS pH 7.4, 2 × 10^7 cells/mL stock, 10–0.08 μM, 2 h at 37°C, absorbance 405 nm, 1% Triton X-100 positive control, mean ± SD, at least three biological repeats), the HC50 is 0.59 ± 0.04 µM. In series [6] (chicken RBCs, HC50/MBC50, MBC50 toward S. aureus 29213), the “TI (hemolysis)” value was found to be 0.67. In addition, the “TI (haemolysis)” value in series [6] (chicken RBCs, HC50/MBC50, MBC50 towards E. coli 8729) stood at 0.14. In addition, the IC50 in series [7] (H4IIE cells, MTS proliferation assay after 90 min exposure, 1 h MTS, linear regression, mean ± SD, at least three biological repeats) came out at 2.88 ± 0.08 µM; in series [8] (HEK293 cells, MTS proliferation assay after 90 min exposure, 1 h MTS, linear regression, mean ± SD, at least three biological repeats), 9.47 ± 3.63 µM. For the same compound, the “TI (cell proliferation)” value was 4.01 in series [7] (MIC50 toward S. aureus 29213), 0.76 in series [7] (MIC50 towards E. coli 8729), 13.18 in series [8] (MIC50 toward S. aureus 29213) and 2.49 in series [8] (MIC50 towards E. coli 8729).

Turning to `CN[C@H](CC(C)C)C(=O)N[C@H]1C(=O)N[C@@H](CC(N)=O)C(=O)N[C@H]2C(=O)N[C@H]3C(=O)N[C@H](C(=O)N[C@H](C(=O)O)c4cc(O)cc(O)c4-c4cc3ccc4O)[C@H](O)c3ccc(c(Cl)c3)Oc3cc2cc(c3O[C@@H]2O[C@H](CO)[C@@H](O)[C@H](O)[C@H]2O[C@H]2C[C@](C)(N)[C@H](O)[C@H](C)O2)Oc2ccc(cc2Cl)[C@H]1O` [Vancomycin], the MBC in series [3] (Staphylococcus aureus, ATCC29213, cation-adjusted MHB, read-out: MBC) was determined as 1.61 ± 0.44 µM (≈ 2.33 µg/mL).

These data come from paper PMC11492869, “Dimerization and lysine substitution of melittin have differing effects on bacteria” (Frontiers in Pharmacology, 2024).
